Experimental data taken from US10093630B2, “Pyrazole compounds and methods of making and using same” (ABIDE THERAPEUTICS, INC., priority 2014, dated 2018).

Experiments:
Experiment in all cases: In vitro competitive activity-based protein profiling (gel-based, FP-Rh or HT-01 probe)
Format in all cases: biochemical
ABHD6 = target: T1, ABHD6 (Mus musculus, UniProt Q8R2Y0); conditions: for inhibition at 1 µM: 1 μM inhibitor, read-out: % Inhibition at 1 μM, C = ABHD6; for inhibition at 10 µM: 10 μM inhibitor, read-out: % Inhibition at 10 μM, C = ABHD6; for IC50: mouse brain membrane fraction or cell lysates, 30 min preincubation at 37° C., read-out: Mouse (IC50 value, nM) ABHD6
T1 construct: Proteomes (mouse brain membrane fraction or cell lysates); from tissue; host or cells: mouse brain membrane fraction (or cell lysates, not specified)
T1 sequence (Q8R2Y0 1-336): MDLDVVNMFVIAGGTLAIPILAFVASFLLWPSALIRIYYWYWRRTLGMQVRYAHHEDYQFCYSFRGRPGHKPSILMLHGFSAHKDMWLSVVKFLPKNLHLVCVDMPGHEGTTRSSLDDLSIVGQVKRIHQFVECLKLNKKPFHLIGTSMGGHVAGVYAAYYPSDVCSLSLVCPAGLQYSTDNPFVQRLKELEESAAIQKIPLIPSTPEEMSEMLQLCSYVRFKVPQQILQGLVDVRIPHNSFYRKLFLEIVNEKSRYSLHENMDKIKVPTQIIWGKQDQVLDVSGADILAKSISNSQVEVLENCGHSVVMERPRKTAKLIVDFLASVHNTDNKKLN
Summary of the method: (§1)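 Read-out: fluorescent band intensity on SDS-PAGE gels, reporting remaining serine hydrolase activity. Before that, proteome (mouse brain membranes or cell lysates, 1.0 mg/mL) saw a range of inhibitor concentrations for 30 min at 37° C, followed by 30 min probe labelling (FP-Rh or HT-01).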

PLA2G7 = target: T2, PLA2G7 (Mus musculus, UniProt Q60963); conditions: for inhibition at 1 µM: 1 μM inhibitor, read-out: % Inhibition at 1 μM, D = PLA2G7; for inhibition at 10 µM: 10 μM inhibitor, read-out: % Inhibition at 10 μM, D = PLA2G7
T2 construct: Proteomes (mouse brain membrane fraction or cell lysates); from tissue; host or cells: mouse brain membrane fraction (or cell lysates, not specified)
T2 sequence (Q60963 22-440): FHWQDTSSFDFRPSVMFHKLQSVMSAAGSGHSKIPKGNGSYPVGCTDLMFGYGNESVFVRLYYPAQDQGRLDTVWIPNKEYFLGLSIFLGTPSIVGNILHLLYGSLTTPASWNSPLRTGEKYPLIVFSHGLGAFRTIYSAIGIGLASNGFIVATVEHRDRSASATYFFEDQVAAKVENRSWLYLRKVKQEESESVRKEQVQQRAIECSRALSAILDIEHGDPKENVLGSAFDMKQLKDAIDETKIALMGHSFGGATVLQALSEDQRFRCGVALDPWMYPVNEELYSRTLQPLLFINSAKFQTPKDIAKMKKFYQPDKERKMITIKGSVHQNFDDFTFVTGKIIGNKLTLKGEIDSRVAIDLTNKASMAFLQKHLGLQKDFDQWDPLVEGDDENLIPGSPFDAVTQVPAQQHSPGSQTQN
Summary of the method: as §1

MAGL = target: T3, MAGL (Mus musculus, UniProt O35678); conditions: for inhibition at 1 µM: 1 μM inhibitor; for inhibition at 10 µM: 10 μM inhibitor; for IC50: mouse brain membrane fraction or cell lysates, 30 min preincubation at 37° C., read-out: Mouse (IC50 value, nM) MAGL
T3 construct: Proteomes (mouse brain membrane fraction or cell lysates); from tissue; host or cells: mouse brain membrane fraction (or cell lysates, not specified)
T3 sequence (O35678 1-303): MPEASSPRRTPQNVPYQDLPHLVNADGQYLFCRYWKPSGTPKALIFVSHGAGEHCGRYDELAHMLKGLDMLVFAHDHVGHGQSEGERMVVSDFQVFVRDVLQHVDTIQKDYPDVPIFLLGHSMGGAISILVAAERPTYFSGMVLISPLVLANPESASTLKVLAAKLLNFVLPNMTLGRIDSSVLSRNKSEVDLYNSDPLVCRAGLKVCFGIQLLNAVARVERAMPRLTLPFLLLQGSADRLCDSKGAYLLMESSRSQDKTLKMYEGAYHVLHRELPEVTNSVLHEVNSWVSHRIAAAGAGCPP
Summary of the method: as §1

FAAH = target: T4, FAAH (Mus musculus, UniProt O08914); conditions: for inhibition at 1 µM: 1 μM inhibitor, read-out: % Inhibition at 1 μM, B = FAAH; for inhibition at 10 µM: 10 μM inhibitor, read-out: % Inhibition at 10 μM, B = FAAH; for IC50: mouse brain membrane fraction or cell lysates, 30 min preincubation at 37° C., read-out: Mouse (IC50 value, nM) FAAH
T4 construct: Proteomes (mouse brain membrane fraction or cell lysates); from tissue; host or cells: mouse brain membrane fraction (or cell lysates, not specified)
T4 sequence (O08914 1-579): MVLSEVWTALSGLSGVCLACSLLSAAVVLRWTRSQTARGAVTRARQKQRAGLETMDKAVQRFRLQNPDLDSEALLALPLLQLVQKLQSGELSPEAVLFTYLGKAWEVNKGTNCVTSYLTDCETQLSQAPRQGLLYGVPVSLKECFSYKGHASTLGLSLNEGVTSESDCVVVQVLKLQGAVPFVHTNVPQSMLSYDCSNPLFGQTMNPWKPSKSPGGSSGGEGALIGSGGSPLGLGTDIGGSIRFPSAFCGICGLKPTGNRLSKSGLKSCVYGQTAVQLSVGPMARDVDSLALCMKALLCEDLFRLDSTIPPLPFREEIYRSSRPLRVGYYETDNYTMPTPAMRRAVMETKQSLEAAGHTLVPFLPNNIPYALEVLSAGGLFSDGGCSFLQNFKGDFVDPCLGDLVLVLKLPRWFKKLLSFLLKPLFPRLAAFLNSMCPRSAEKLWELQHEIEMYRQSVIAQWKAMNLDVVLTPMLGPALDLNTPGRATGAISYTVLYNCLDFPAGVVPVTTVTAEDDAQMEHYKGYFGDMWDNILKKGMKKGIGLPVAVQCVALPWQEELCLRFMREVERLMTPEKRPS
Summary of the method: as §1

Structure (SMILES) | inhibition at 1 µM (ABHD6) [%] | inhibition at 10 µM (ABHD6) [%] | inhibition at 1 µM (PLA2G7) [%] | inhibition at 10 µM (PLA2G7) [%] | inhibition at 1 µM (MAGL) [%] | inhibition at 10 µM (MAGL) [%] | inhibition at 1 µM (FAAH) [%] | inhibition at 10 µM (FAAH) [%] | IC50 (FAAH) [nM] | IC50 (ABHD6) [nM] | IC50 (MAGL) [nM]
O=C(c1cnn(C(=O)N2CCN(Cc3ccncc3)CC2)c1)N1CCC1 [Example 87, Azetidin-1-yl(1-(4-(pyridin-4-ylmethyl)piperazine-1-carbonyl)-1H-pyrazol-4-yl)methanone] | < 25 | > 75 | < 25 | > 75 | < 25 | < 25 | < 25 | > 75 |  |  | 
O=C(c1cnn(C(=O)N2CCN(Cc3cccnc3)CC2)c1)N1CCC1 [Example 88, Azetidin-1-yl(1-(4-(pyridin-3-ylmethyl)piperazine-1-carbonyl)-1H-pyrazol-4-yl)methanone] |  | > 75 |  | > 75 |  | < 25 |  | 25 to 75 |  |  | 
O=C(c1cnn(C(=O)N2CCN(Cc3ccccn3)CC2)c1)N1CCC1 [Example 89, Azetidin-1-yl(1-(4-(pyridin-2-ylmethyl)piperazine-1-carbonyl)-1H-pyrazol-4-yl)methanone] |  | 25 to 75 |  | > 75 |  | < 25 |  | > 75 |  |  | 
O=C(c1cnn(C(=O)N2CCN(Cc3ccncn3)CC2)c1)N1CCC1 [Example 90, Azetidin-1-yl(1-(4-(pyrimidin-4-ylmethyl)piperazine-1-carbonyl)-1H-pyrazol-4-yl)methanone] | < 25 | > 75 | < 25 | > 75 |  | < 25 |  | 25 to 75 |  |  | 
O=C(c1cnn(C(=O)N2CCN(Cc3nccs3)CC2)c1)N1CCC1 [Example 91, Azetidin-1-yl(1-(4-(thiazol-2-ylmethyl)piperazine-1-carbonyl)-1H-pyrazol-4-yl)methanone] | < 25 | > 75 | < 25 | > 75 |  | < 25 |  | > 75 | > 1000 |  | 
O=C(c1cnn(C(=O)N2CCN(Cc3cncnc3)CC2)c1)N1CCC1 [Example 92, Azetidin-1-yl(1-(4-(pyrimidin-5-ylmethyl)piperazine-1-carbonyl)-1H-pyrazol-4-yl)methanone] | < 25 | > 75 | < 25 | > 75 |  | < 25 |  | < 25 |  |  | 
Cc1cc(-c2ccccc2)ccc1CN1CCN(C(=O)n2cc(C(=O)N3CCC3)cn2)CC1 [Example 93, Azetidin-1-yl(1-(4-((3-methyl-[1,1′-biphenyl]-4-yl)methyl)piperazine-1-carbonyl)-1H-pyrazol-4-yl)methanone] | > 75 | > 75 | < 25 | > 75 | > 75 | > 75 | > 75 | > 75 | < 100 | 100 to 1000 | 100 to 1000
O=C(N1CCCC1)n1cc(-c2ccccc2)cn1 [Example 103, (4-Phenyl-1H-pyrazol-1-yl)(pyrrolidin-1-yl)methanone] |  | < 25 |  | > 75 |  | < 25 |  | > 75 |  |  | 
O=C(N1CCCC1)n1cc(-c2ccc(-c3ccccc3)cc2)cn1 [Example 106, (4-([1,1′-Biphenyl]-4-yl)-1H-pyrazol-1-yl)(pyrrolidin-1-yl)methanone] | 25 to 75 | > 75 | < 25 | 25 to 75 |  | < 25 |  | < 25 |  |  | 
COc1ccccc1-c1ccc(-c2cnn(C(=O)N3CCCC3)c2)cc1 [Example 107, (4-(2′-Methoxy-[1,1′-biphenyl]-4-yl)-1H-pyrazol-1-yl)(pyrrolidin-1-yl)methanone] | > 75 | > 75 | < 25 | 25 to 75 | < 25 | > 75 | < 25 | < 25 |  | 100 to 1000 | 

The remaining lines, values ahead:

inhibition at 1 µM (ABHD6) [%] | inhibition at 10 µM (ABHD6) [%] | inhibition at 1 µM (PLA2G7) [%] | inhibition at 10 µM (PLA2G7) [%] | inhibition at 1 µM (MAGL) [%] | inhibition at 10 µM (MAGL) [%] | inhibition at 1 µM (FAAH) [%] | inhibition at 10 µM (FAAH) [%] | IC50 (FAAH) [nM] | IC50 (ABHD6) [nM] | IC50 (MAGL) [nM] | Structure (SMILES)
> 75 | > 75 | > 75 | > 75 | > 75 | > 75 | < 25 | > 75 | > 1000 | < 100 | < 100 | O=C(N1CCN(Cc2c(N3CCCC3)cccc2C(F)(F)F)CC1)n1cc(C(F)(F)F)cn1 [Example 110, (4-(2-(Pyrrolidin-1-yl)-6-(trifluoromethyl)benzyl)piperazin-1-yl)(4-(trifluoromethyl)-1H-pyrazol-1-yl)methanone]
> 75 | > 75 | < 25 | > 75 | < 25 | > 75 | < 25 | < 25 |  | 100 to 1000 |  | CC(C)c1cnn(C(=O)N2CCN(Cc3c(N4CCCC4)cccc3C(F)(F)F)CC2)c1 [Example 112, (4-Isopropyl-1H-pyrazol-1-yl)(4-(2-(pyrrolidin-1-yl)-6-(trifluoromethyl)benzyl)piperazin-1-yl)methanone]
> 75 | 25 to 75 | 25 to 75 | > 75 | < 25 | 25 to 75 | < 25 | 25 to 75 |  | 100 to 1000 |  | O=C(N1CCN(Cc2ccc(C(F)(F)F)cc2N2CCCC2)CC1)n1cc(-c2ccccc2C(F)(F)F)cn1 [Example 115, (4-(2-(Pyrrolidin-1-yl)-4-(trifluoromethyl)benzyl)piperazin-1-yl)(4-(2-(trifluoromethyl)phenyl)-1H-pyrazol-1-yl)methanone]
> 75 | > 75 |  | > 75 | 25 to 75 | > 75 | < 25 | < 25 |  | > 1000 |  | O=C(N1CCN(Cc2ccc(C(F)(F)F)cc2N2CCCC2)CC1)n1cc(-c2ccc(C(F)(F)F)cc2)cn1 [Example 116, (4-(2-(Pyrrolidin-1-yl)-4-(trifluoromethyl)benzyl)piperazin-1-yl)(4-(4-(trifluoromethyl)phenyl)-1H-pyrazol-1-yl)methanone]
